Results on 3 compounds are retold here after ChEMBL document CHEMBL1150235, “Parnapimarol and nepetaparnone from Nepeta parnassica” (2008).

Active and inactive are the calls of the source. No cut-off for these calls is given here.

Assay [1] has as its system Leptothorax. Kind of assay: Insecticidal activity against Leptothorax sp. assessed as number of dead ants at 0.5 mg after 6 to 24 hrs relative to control. It counts as functional.
Assay [2] has as its system Culex pipiens molestus. Kind of assay: Insecticidal activity against Culex pipiens molestus larvae at 10 to 50 mg/L after 6 to 24 hrs. The format is functional, organism-based.

Consider `CC1=C2CC[C@H](C)[C@@]23C(=O)O[C@H]1[C@@]12C(=O)O[C@H]3C(C)=C1CC[C@@H]2C` [NEPETANUDONE], for which the Activity in assay [1] is listed as 45%. The result in assay [2] was inactive.

Regarding `CC1=C2CC[C@@H](C)[C@@]23C(=O)O[C@H]1[C@@]12C(=O)O[C@H]3C(C)=C1CC[C@@H]2C` [NEPETAPARNONE], the Activity in assay [1] came to 55%. Besides, the result in assay [2] was inactive.

With `C=C[C@]1(C)CCC2=C(CC[C@H]3[C@](C)(COC(=O)C(C)CC)CC[C@H](O)[C@]23C)[C@@H]1OC(C)=O` (stereo partly specified) [PARNAPIMAROL], in assay [1], the Activity came out at 31%. Besides, the result in assay [2] was inactive.
